Measurements published in the OligoGym collection.
Values joined by “and” are separate entries in the source; they are usually repeats but may differ in a detail not shown here. Equal entries are not always repeated. After the bases stand the sugars from the 5' end (letter, count) and the backbone: PS all phosphorothioate, else s phosphorothioate and o phosphodiester by linkage. Methylation of C is not given here. e = 2'-O-(2-methoxyethyl) (MOE); k = constrained ethyl (cEt); d = 2'-deoxy (DNA)

Target: SOD1
Conditions: ASO

GTTTAATGTTTATCAGG (sugars e2 k2 d9 k2 e2, linkages s1 o3 s9 o1 s2)
target mRNA inhibition (A431, 0.12 µM): 25% | target mRNA inhibition (A431, 0.6 µM): 69% | target mRNA inhibition (A431, 3 µM): 89% | target mRNA inhibition (A431, 15 µM): 95% | target mRNA inhibition (HepG2, 0.222 µM): 76% | target mRNA inhibition (HepG2, 0.667 µM): 90% | target mRNA inhibition (HepG2, 2 µM): 94% | target mRNA inhibition (HepG2, 6 µM): 93%

GTTTAATGTTTATCAGGA (sugars e5 d8 e5, linkages s1 o3 s9 o2 s2)
target mRNA inhibition (A431, 0.12 µM): 15% | target mRNA inhibition (A431, 0.6 µM): 51% | target mRNA inhibition (A431, 3 µM): 68% | target mRNA inhibition (A431, 15 µM): 84% | target mRNA inhibition (HepG2, 0.222 µM): 45% | target mRNA inhibition (HepG2, 0.667 µM): 73% | target mRNA inhibition (HepG2, 2 µM): 78% | target mRNA inhibition (HepG2, 6 µM): 87%

GTTTAATGTTTATCAGGATA (sugars e5 d10 e5, PS)
target mRNA inhibition (HepG2, 0.1875 µM): 15% | target mRNA inhibition (HepG2, 0.75 µM): 37% | target mRNA inhibition (HepG2, 3 µM): 70% | target mRNA inhibition (HepG2, 5 µM): 71% | target mRNA inhibition (HepG2, 12 µM): 88%

GTTTATTGGGCGATCCC (sugars e2 k2 d9 k2 e2, PS)
target mRNA inhibition (HepG2, 4 µM): 68%

GTTTTATAAAACTATAC (sugars e3 k2 d7 k2 e3, PS)
target mRNA inhibition (HepG2, 3 µM): 22%

TAAAGTGAGGACCTGCA (sugars e3 k2 d7 k2 e3, PS)
target mRNA inhibition (HepG2, 3 µM): 19%

TAATAAGTGCCATACAG (sugars e2 k2 d9 k2 e2, PS)
target mRNA inhibition (HepG2, 5 µM): 30%

TAATACCCATCTGTGAT (sugars e3 k2 d7 k2 e3, PS)
target mRNA inhibition (HepG2, 3 µM): 4%

TAATGCTTCCCCACACC (sugars e3 k2 d7 k2 e3, PS)
target mRNA inhibition (HepG2, 3 µM): 52%

TAATGTTTATCAGGAT (sugars ekddddddddekekee, linkages s1 o1 s8 o3 s2)
target mRNA inhibition (A431, 0.12 µM): 1% | target mRNA inhibition (A431, 0.6 µM): 9% | target mRNA inhibition (A431, 3 µM): 22% | target mRNA inhibition (A431, 15 µM): 46%

TAATGTTTATCAGGATA (sugars e2 k2 d9 k2 e2, PS)
target mRNA inhibition (HepG2, 0.1875 µM): 28% | target mRNA inhibition (HepG2, 0.75 µM): 66% | target mRNA inhibition (HepG2, 3 µM): 91% | target mRNA inhibition (HepG2, 4 µM): 85% and 82% | target mRNA inhibition (HepG2, 12 µM): 93% and 98%

TACACCACAAGCCAAAC (sugars e2 k2 d9 k2 e2, PS)
target mRNA inhibition (HepG2, 4 µM): 63%

TACAGCTAGCAGGATAA (sugars e3 k2 d7 k2 e3, PS)
target mRNA inhibition (HepG2, 3 µM): 40%

TACAGGTACTTTAAAGC (sugars e2 k2 d9 k2 e2, PS)
target mRNA inhibition (HepG2, 5 µM): 26%

TACAGGTCATTGAAACA (sugars e2 k2 d9 k2 e2, PS)
target mRNA inhibition (HepG2, 5 µM): 38%

TACATCCAAGGGAATGT (sugars e3 k2 d7 k2 e3, PS)
target mRNA inhibition (HepG2, 3 µM): 30%

TACCCATCTGTGATTTA (sugars e2 k2 d9 k2 e2, PS)
target mRNA inhibition (HepG2, 5 µM): 45%

TAGCAGGATAACAGATG (sugars e3 k2 d7 k2 e3, PS)
target mRNA inhibition (HepG2, 3 µM): 34%

TAGCCTCATAATAAGTG (sugars e2 k2 d8 k2 e3, PS)
target mRNA inhibition (HepG2, 5 µM): 11%

TATTGGGCGATCCCAAT (sugars e3 k2 d7 k2 e3, PS)
target mRNA inhibition (HepG2, 3 µM): 3%

TCACACAATTACACTTT (sugars e2 k2 d8 k2 e3, PS)
target mRNA inhibition (HepG2, 5 µM): 28%

TCAGACTACATCCAAGG (sugars e3 k2 d7 k2 e3, PS)
target mRNA inhibition (HepG2, 0.1875 µM): 19% | target mRNA inhibition (HepG2, 0.75 µM): 51% | target mRNA inhibition (HepG2, 3 µM): 57% and 74% | target mRNA inhibition (HepG2, 12 µM): 85%

TCAGCACGCACACGGCCTTC (sugars e5 d10 e5, PS)
target mRNA inhibition (HepG2, 0.1875 µM): 6% | target mRNA inhibition (HepG2, 0.75 µM): 12% | target mRNA inhibition (HepG2, 3 µM): 51% | target mRNA inhibition (HepG2, 4 µM): 52% | target mRNA inhibition (HepG2, 12 µM): 88%

TCAGGATACATTTCTACAGC (sugars e5 d10 e5, linkages s1 o3 s11 o3 s1)
target mRNA inhibition (A431, 0.12 µM): 9% | target mRNA inhibition (A431, 0.6 µM): 8% | target mRNA inhibition (A431, 3 µM): 21% | target mRNA inhibition (A431, 15 µM): 49% | target mRNA inhibition (HepG2, 0.222 µM): 25% | target mRNA inhibition (HepG2, 0.667 µM): 50% | target mRNA inhibition (HepG2, 2 µM): 92% | target mRNA inhibition (HepG2, 6 µM): 73%

TCATGAACATGGAATCCATG (sugars e5 d10 e5, PS)
target mRNA inhibition (HepG2, 5 µM): 24% and 19%

TCCCCACACCTTCACT (sugars ekddddddddekekee, linkages s1 o1 s8 o3 s2)
target mRNA inhibition (A431, 0.12 µM): 0% | target mRNA inhibition (A431, 0.6 µM): 0% | target mRNA inhibition (A431, 3 µM): 7% | target mRNA inhibition (A431, 15 µM): 21% | target mRNA inhibition (HepG2, 0.222 µM): 16% | target mRNA inhibition (HepG2, 0.667 µM): 34% | target mRNA inhibition (HepG2, 2 µM): 58% | target mRNA inhibition (HepG2, 6 µM): 80%

TCCCCACACCTTCACT (sugars kekeddddddddekek, linkages s1 o3 s8 o1 s2)
target mRNA inhibition (A431, 0.12 µM): 3% | target mRNA inhibition (A431, 0.6 µM): 44% | target mRNA inhibition (A431, 3 µM): 2% | target mRNA inhibition (A431, 15 µM): 8% | target mRNA inhibition (HepG2, 0.222 µM): 19% | target mRNA inhibition (HepG2, 0.667 µM): 9% | target mRNA inhibition (HepG2, 2 µM): 31% | target mRNA inhibition (HepG2, 6 µM): 61%

TCCTGGTTCCGAGGACTGCA (sugars e5 d10 e5, PS)
target mRNA inhibition (HepG2, 4 µM): 24%

TCGCCCTTCAGCACGCA (sugars e2 k2 d8 k2 e3, PS)
target mRNA inhibition (HepG2, 4 µM): 56% and 55% | target mRNA inhibition (HepG2, 5 µM): 53% and 64% | target mRNA inhibition (HepG2, 12 µM): 71%

TCGGCCACACCATCTTTGTC (sugars e5 d10 e5, PS)
target mRNA inhibition (HepG2, 5 µM): 32% and 28%

TCTGAAAAAGTCACACAATT (sugars e5 d10 e5, PS)
target mRNA inhibition (HepG2, 5 µM): 5%

TCTGCTCGAAATTGATGATG (sugars e5 d10 e5, PS)
target mRNA inhibition (HepG2, 4 µM): 14%

TCTGGCAAAATACAGGT (sugars e3 k2 d7 k2 e3, PS)
target mRNA inhibition (HepG2, 3 µM): 0%

TCTGTGATTTAAGTCTG (sugars e2 k2 d8 k2 e3, PS)
target mRNA inhibition (HepG2, 5 µM): 49%

TGAAAAAGTCACACAATTAC (sugars e5 d10 e5, PS)
target mRNA inhibition (HepG2, 5 µM): 0%

TGAGAGTGAGATCACAGAAT (sugars e5 d10 e5, PS)
target mRNA inhibition (HepG2, 5 µM): 18%

TGATTTAAGTCTGGCAA (sugars e2 k2 d9 k2 e2, PS)
target mRNA inhibition (HepG2, 5 µM): 52%

TGCTCGAAATTGATGATGCC (sugars e5 d10 e5, PS)
target mRNA inhibition (HepG2, 4 µM): 20%

TGCTTCCCCACACCTTC (sugars e3 k2 d7 k2 e3, PS)
target mRNA inhibition (HepG2, 3 µM): 43%

TGGATAGAGGATTAAAG (sugars e3 k2 d7 k2 e3, PS)
target mRNA inhibition (HepG2, 3 µM): 23%

TGGGCCGTCGCCCTTCAGCA (sugars e5 d10 e5, PS)
target mRNA inhibition (HepG2, 4 µM): 12%

TGGGCGATCCCAATTAC (sugars e2 k2 d9 k2 e2, PS)
target mRNA inhibition (HepG2, 4 µM): 46%

TGTCAGCAGTCACATTGCCC (sugars e5 d10 e5, PS)
target mRNA inhibition (HepG2, 5 µM): 55% and 49%

TGTTTAATGTTTATCA (sugars ekddddddddekekee, linkages s1 o1 s8 o3 s2)
target mRNA inhibition (A431, 0.12 µM): 0% | target mRNA inhibition (A431, 0.6 µM): 13% | target mRNA inhibition (A431, 3 µM): 31% | target mRNA inhibition (A431, 15 µM): 49%

TGTTTAATGTTTATCAGG (sugars e5 d8 e5, linkages s1 o3 s9 o2 s2)
target mRNA inhibition (A431, 0.12 µM): 6% | target mRNA inhibition (A431, 0.6 µM): 26% | target mRNA inhibition (A431, 3 µM): 29% | target mRNA inhibition (A431, 15 µM): 33% | target mRNA inhibition (HepG2, 0.222 µM): 14% | target mRNA inhibition (HepG2, 0.667 µM): 39% | target mRNA inhibition (HepG2, 2 µM): 59% | target mRNA inhibition (HepG2, 6 µM): 77%

TGTTTATCAGGATACAT (sugars e2 k2 d9 k2 e2, PS)
target mRNA inhibition (HepG2, 0.1875 µM): 37% | target mRNA inhibition (HepG2, 0.75 µM): 63% | target mRNA inhibition (HepG2, 3 µM): 83% | target mRNA inhibition (HepG2, 4 µM): 83% | target mRNA inhibition (HepG2, 12 µM): 95%

TGTTTATTGGGCGATCC (sugars e2 k2 d9 k2 e2, PS)
target mRNA inhibition (HepG2, 4 µM): 47%

TTAAGATTACAGTGTTT (sugars e3 k2 d7 k2 e3, PS)
target mRNA inhibition (HepG2, 3 µM): 54%
